According to patent publication US20090312349A1, “ANTI-INFLAMMATORY MEDICAMENTS” (priority 2004, published 2009):

molecular target: T1, phospho p-38 alpha kinase (Homo sapiens, UniProt Q16539); experiment: P-38 alpha kinase assay (spectrophotometric, pyruvate kinase/lactate dehydrogenase coupled); assay type: biochemical; conditions: Table 3; rates at […] to 2 h; read-out: IC50
T1 construct: purchased Panvera
Procedure: In this assay, the oxidation of NADH was continuously measured spectrophometrically. […] The reaction was initiated by adding ATP. The absorption at 340 nm was monitored continuously for up to 4 hours at 30° C. on Polarstar Optima plate reader (BMG). The kinase activity (reaction rate) was calculated from the slope at the time frame from 1.5 h to 2 h.
For inhibition determinations, test compounds were incubated with the reaction mixture for ˜5 min before adding ATP to start the reaction. […] IC50 values were calculated from a series of % inhibition values determined at a range of concentrations of each inhibitor using Prism to process the data and fit inhibition curves. Generally, the rates obtained at the time frame of 1.5 h to 2 h were used for these calculations.

T1 sequence (Q16539 whole entry): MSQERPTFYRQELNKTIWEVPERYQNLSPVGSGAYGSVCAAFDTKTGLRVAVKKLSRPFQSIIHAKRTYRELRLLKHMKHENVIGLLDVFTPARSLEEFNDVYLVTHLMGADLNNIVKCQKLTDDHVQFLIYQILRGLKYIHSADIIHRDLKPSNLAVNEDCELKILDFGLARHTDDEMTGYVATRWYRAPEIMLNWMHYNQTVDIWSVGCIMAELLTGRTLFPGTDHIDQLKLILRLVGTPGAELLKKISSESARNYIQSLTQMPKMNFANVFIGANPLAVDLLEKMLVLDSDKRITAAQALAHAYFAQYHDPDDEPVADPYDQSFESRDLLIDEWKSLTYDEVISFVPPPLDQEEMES

IC50 [µM]	Structure (SMILES)
0.008	CC(C)(C)c1cc(NC(=O)Nc2cccc(F)c2F)n(-c2ccc(CC(=O)O)cc2)n1 [Example 204, 2-(4-(3-t-butyl-5-(3-(2,3-difluorophenyl)ureido)-1H-pyrazol-1-yl)-phenyl)acetic acid]
0.013	COc1cccc(-n2nc(C(C)(C)C)cc2NC(=O)Nc2ccc(F)cc2)c1 [Example 206, 1-(3-t-butyl-1-(3-methoxyphenyl)-1H-pyrazol-5-yl)-3-(4-fluorophenyl)urea]
1.3	CC(C)(C)c1cc(NC(=O)Nc2cccc(Cl)c2Cl)n(-c2cccc(C(N)=O)c2)n1 [Example 289, 1-[3-t-butyl-1-(3-carbamoylphenyl)-1H-pyrazol-5-yl]-3-(2,3-dichlorophenyl)urea]

same assay, conditions: Table 5; @ 1 uM

Structure (SMILES)	% @ concentration, uM [%]
CC(Cc1cccc(-n2nc(C(C)(C)C)cc2NC(=O)Nc2cccc(Cl)c2Cl)c1)C(=O)O (stereo not drawn) [Example 323, 3-(3-{3-t-butyl-5-[3-(2,3-dichlorophenyl)ureido]-1H-pyrazol-1-yl}-1-phenyl)-2-methylpropanoic acid]	9

same assay, conditions: Table 5; @ 10 uM

Structure (SMILES)	% @ concentration, uM
CC(C)(C)c1cc(NC(=O)Nc2cccc(F)c2F)n(-c2ccc(CO)cc2)n1 [Example 315, 1-{3-t-butyl-1-[4-(hydroxymethyl)phenyl]-1H-pyrazol-5-yl}-3-(2,3-difluoro-phenyl)urea]	54% @ 10
CC(Cc1cccc(-n2nc(C(C)(C)C)cc2NC(=O)Nc2cccc(Cl)c2Cl)c1)C(=O)O (stereo not drawn) [Example 323, 3-(3-{3-t-butyl-5-[3-(2,3-dichlorophenyl)ureido]-1H-pyrazol-1-yl}-1-phenyl)-2-methylpropanoic acid]	51%
CCOC(=O)C(C)Cc1ccc(-n2nc(C(C)(C)C)cc2NC(=O)Nc2cccc3ccccc23)cc1 (stereo not drawn) [Example 324, ethyl 3-(4-{3-t-butyl-5-[3-(naphthalen-1-yl)ureido]-1H-pyrazol-1-yl}phenyl)-2-methylpropanoate]	40% @ 10
CC(Cc1ccc(-n2nc(C(C)(C)C)cc2NC(=O)Nc2cccc3ccccc23)cc1)C(=O)O (stereo not drawn) [Example 325, 3-(4-{3-t-butyl-5-[3-(naphthalen-1-yl)ureido]-1H-pyrazol-1-yl}phenyl)-2-methylpropanoic acid]	54% @ 10
CCOC(=O)C(C)Cc1ccc(-n2nc(C(C)(C)C)cc2NC(=O)Nc2ccc(Cl)cc2)cc1 (stereo not drawn) [Example 326, ethyl 3-(4-{3-t-butyl-5-[3-(4-chlorophenyl)ureido]-1H-pyrazol-1-yl}phenyl)-2-methylpropanoate]	41% @ 10
CCOC(=O)c1cccc(-n2nc(-c3ccccc3)cc2NC(=O)Nc2cccc3ccccc23)c1 [Example 328, ethyl 3-[5-(3-naphthalen-1-yl-ureido)-3-phenyl-pyrazol-1-yl]benzoate]	68% @ 10
O=C(Nc1ccc(Cl)cc1)Nc1cc(-c2ccccc2)nn1-c1ccc(CO)cc1 [Example 331, 1-(4-chlorophenyl)-3-{1-[4-(hydroxymethyl)phenyl]-3-phenyl-1H-pyrazol-5-yl}-urea]	71% @ 10

same assay, conditions: Table 5; assay not named; read-out: uM

Structure (SMILES)	IC50 [µM]
CC(C)(C)c1cc(NC(=O)Nc2cccc(Cl)c2)n(-c2cccc(CO)c2)n1 [Example 303]	0.089
COc1cccc(NC(=O)Nc2cc(C(C)(C)C)nn2-c2cccc(CO)c2)c1 [Example 306, 1-{3-t-butyl-1-[3-(hydroxymethyl)phenyl]-1H-pyrazol-5-yl}-3-(3-methoxyphenyl)urea]	0.058
CC(C)(C)c1cc(NC(=O)Nc2cccc3ccccc23)n(-c2cccc(CN)c2)n1 [Example 307, 1-(3-t-butyl-1-(3-(aminomethyl)phenyl)-1H-pyrazol-5-yl)-3-(naphthalen-1-yl)urea]	0.049

Second part, the compound after the results:

IC50 [µM]	Structure (SMILES)
0.13	CNC(=O)Cc1cccc(-n2nc(C(C)(C)C)cc2NC(=O)Nc2cccc(Cl)c2Cl)c1 [Example 310]
0.182	CCOC(=O)CCc1cccc(-n2nc(-c3ccccc3)cc2NC(=O)Nc2ccc(Cl)cc2)c1 [Example 311, 3-(3-{5-[3-(4-chlorophenyl)-ureido]-3-phenyl-pyrazol-1-yl}-phenyl)-propionic acid ethyl ester]
0.349	COc1ccc(-n2nc(C(C)(C)C)cc2NC(=O)Nc2cccc(F)c2F)cc1 [Example 312, 1-[3-t-butyl-1-(4-methoxyphenyl)-1H-pyrazol-5-yl]-3-(2,3-difluorophenyl)urea]
0.25	CCOC(=O)CCc1cccc(-n2nc(C(C)C)cc2NC(=O)Nc2ccc(Cl)cc2)c1 [Example 313, ethyl 3-(3-(5-(3-(4-chlorophenyl)ureido)-3-isopropyl-1H-pyrazol-1-yl)phenyl)propanoate]
0.25	CCOC(=O)c1ccc(-n2nc(C(C)(C)C)cc2NC(=O)Nc2cccc(F)c2F)cc1 [Example 314, ethyl 4-{3-t-butyl-5-[3-(2,3-difluorophenyl)ureido]-1H-pyrazol-1-yl}benzoate]
0.42	CCOC(=O)Cc1ccc(-n2nc(C(C)(C)C)cc2NC(=O)Nc2cccc3ccccc23)cc1 [Example 316, ethyl 2-(4-{3-t-butyl-5-[3-(naphthalen-1-yl)ureido]-1H-pyrazol-1-yl}phenyl)acetate]
0.068	CCOC(=O)Cc1ccc(-n2nc(C(C)(C)C)cc2NC(=O)Nc2ccc(Cl)cc2)cc1 [Example 317, ethyl 2-(4-{3-t-butyl-5-[3-(4-chlorophenyl)ureido]-1H-pyrazol-1-yl}phenyl)acetate]
0.67	CCOC(=O)Cc1ccc(-n2nc(C(C)(C)C)cc2NC(=O)Nc2cccc(Cl)c2Cl)cc1 [Example 318]
0.32	CCOC(=O)Cc1cccc(-n2nc(C(C)(C)C)cc2NC(=O)Nc2cccc3ccccc23)c1 [Example 319, ethyl 2-(3-{3-t-butyl-5-[3-(naphthalen-1-yl)ureido]-1H-pyrazol-1-yl}phenyl)acetate]
0.79	CCOC(=O)Cc1cccc(-n2nc(C(C)(C)C)cc2NC(=O)Nc2ccc(Cl)cc2)c1 [Example 320, ethyl 2-(3-{3-t-butyl-5-[3-(4-chlorophenyl)ureido]-1H-pyrazol-1-yl}phenyl)acetate]
0.52	CCOC(=O)Cc1cccc(-n2nc(C(C)(C)C)cc2NC(=O)Nc2cccc(Cl)c2Cl)c1 [Example 321, ethyl 2-(3-{3-t-butyl-5-[3-(2,3-dichlorophenyl)ureido]-1H-pyrazol-1-yl}phenyl)acetate]
2.02	CCOC(=O)C(C)Cc1cccc(-n2nc(C(C)(C)C)cc2NC(=O)Nc2cccc(Cl)c2Cl)c1 (stereo not drawn) [Example 322, ethyl 3-(3-{3-t-butyl-5-[3-(2,3-dichlorophenyl)ureido]-1H-pyrazol-1-yl}phenyl)-2-methylpropanoate]
0.81	CC(Cc1ccc(-n2nc(C(C)(C)C)cc2NC(=O)Nc2ccc(Cl)cc2)cc1)C(=O)O (stereo not drawn) [Example 327, 3-(4-{3-t-butyl-5-[3-(4-chlorophenyl)ureido]-1H-pyrazol-1-yl}phenyl)-2-methylpropanoic acid]
0.25	CC(C)(O)c1cccc(-n2nc(-c3ccccc3)cc2NC(=O)Nc2cccc3ccccc23)c1 [Example 329, 1-{1-[3-(2-hydroxypropan-2-yl)phenyl]-3-phenyl-1H-pyrazol-5-yl}-3-(naphthalen-1-yl)urea]
0.05	CCOC(=O)c1cccc(-n2nc(C(C)C)cc2NC(=O)Nc2cccc3ccccc23)c1 [Example 332, ethyl 3-(3-isopropyl-5-[3-(naphthalen-1-yl)ureido]-1H-pyrazol-1-yl)benzoate]
2.44	CC(C)c1cc(NC(=O)Nc2cccc3ccccc23)n(-c2cccc(C(C)(C)O)c2)n1 [Example 333, 1-{1-[3-(2-hydroxypropan-2-yl)phenyl]-3-isopropyl-1H-pyrazol-5-yl}-3-(naphthalen-1-yl)urea]
